Consider two molecules from publication PMC11375702, “Early Preclinical Studies of Ergosterol Peroxide and Biological Evaluation of Its Derivatives” (ACS Omega, 2024).

The Papp A→B is how fast a substance crosses the layer from the apical side. A higher Papp A→B goes with ready permeation. The Papp B→A is the apparent permeability from the basolateral to the apical side of a cell layer. The EC50 is the concentration that produces a half-maximal response. For orientation: solubility means how much of the substance goes into solution per volume.

Data set [1] can be described thus: Caco-2 permeability assay. Type of data set: in vitro ADME. The conditions noted are these: human; for efflux ratio at 2 h, 10 µmol/L: Caco-2, pH 7.4, Caco-2, read-out: efflux ratio (B2A/A2B); for Papp A→B at 2 h, 10 µmol/L / Papp B→A at 2 h, 10 µmol/L: Caco-2, pH 7.4; for Papp A→B at 2 h, 10 µmol/L: apical to basolateral; for Papp B→A at 2 h, 10 µmol/L: basolateral to apical. As for the experimental part: It was performed in the 96-well Transwell system with a modified method.[36] Caco-2 cells were maintained at 37 °C in a humidified incubator with an atmosphere of 5% CO2. The cells were cultured in MEM containing 20% FBS in […], 100 units/mL penicillin, and 100 μg/mL of streptomycin. The Caco-2 cells were seeded onto inserts of a 96-well plate at a density of 0.5 × 10^5 cells/insert and cultured in the MEM containing 20% FBS for 7 days. Each cultured monolayer on the 96-well plate was washed twice with HBSS/HEPES (10 mM, pH 7.4). The permeability assay was initiated by the addition of each compound solution (10 μmol/L) into inserts (apical side, A) or receivers (basolateral side, B). The Caco-2 cell monolayers were incubated for 2 h at 37 °C. Fractions were collected from receivers (if apical to basal permeability) or inserts (if basal to apical permeability), and concentrations were assessed by UPLC/MS (Waters; Milford, MA). All compounds were tested in triplicates. The A → B (or B → A) apparent permeability coefficients ([…]) of each compound were calculated using the equation Pappa = dQ/dt × 1/AC0. The flux of a drug across the monolayer is dQ/dt (μmol/s). The initial drug concentration on the apical side is C0 (μmol/L). The surface area of the monolayer is A (cm^2).
Background: Caco-2 cells form a polarised layer with tight junctions and transporters.

For a further data set, the system named is MDA-MB-231. As to the kind of experiment: CellTiter-Glo 72 h cytotoxicity assay, MDA-MB-231. The class given is cell-based. The conditions noted are these: Homo sapiens, CTG assay, read-out: MDA-MB231 (EC50). As for the experimental part: The following stable human cell lines were utilized for this study: SUM149 and MDA-MB-231 (breast cancer models) and BJ (human normal fibroblast, foreskin). Cells were purchased from BioIVT or the American Type Culture Collection (ATCC). Cells were cultured in F-12-Nutrient Mixture (SUM149), DMEM (MDA-MB-231), or EMEM (BJ) medium supplemented with 10% fetal bovine serum (Sigma-Aldrich, St. Louis, MO) and 2 mmol of L-glutamine, at 37 °C in a humidified 5% CO2 atmosphere (no antibiotics) as indicated by the manufacturer. Cell cultures were grown to 80–90% confluence before use, except where otherwise specified. Our cell lines are authenticated every 3 months using the CellCheck service (Idexx BioResearch, Westbrook, ME). Cells were tested for mycoplasma prior to use (MycoAlert detection Kit Lonza LT07–318) and discarded if they tested positive. A cell proliferation assay was performed using the CellTiter-Glo (Promega Corp., Madison, WI) luminescent cell viability assay kit. Cells were detached with trypsin, counted, and seeded in white polystyrene flat-bottom sterile 96-well tissue culture-treated plates (catalog no. 3917, Corning, Glendale, Arizona) and incubated overnight at 37 °C. MDA-MB231, SUM149, and BJ cells were seeded into 96-well plates at concentrations experimentally determined (0.4 × 10^4, 0.25 × 10^4, and 0.3 × 10^4 cells per well, respectively) to ensure logarithmic growth during the duration of the experiment and to prevent adverse effects on cell growth by DMSO exposure. The plates were incubated for 12 h before treatment. Stock solutions of test compounds (10 mM in DMSO) in nine 3-fold serial dilutions were dispensed. The final concentration of DMSO was 0.3% (v/v) in each well. The positive control used was staurosporine (10 μM) as the kill-all control, and the negative control used is DMSO as we have published. Staurosporine is a potent alkaloid inducer of various cell death modalities but primarily apoptosis, making it a reliable positive control for viability assays. The plates were incubated for 72 h and then quenched with CTG at 50 μL per well at RT. Plates were then incubated at RT for 20 min and centrifuged at 1000 rpm for 1 min. Luminescence was read on a CLARIOstar Plus plate reader (BMG LabTech, Ortenberg, Germany).
Three or four technical replicates were conducted for each experimental condition, and a minimum of three independent experiments were conducted for each assay. In vitro ADME values were expressed as mean ± standard deviation (SD) of at least three independent experiments. One-way analysis of variance (ANOVA) was adopted for comparisons among groups using the GraphPad Prism 10.2.3 (GraphPad Software, San Diego, CA). A difference of P < 0.05 was considered as statistically significant. Data are expressed as mean ± SEM. For CTG, the mean luminescence of each experimental treatment group was normalized as a percentage of the mean intensity of untreated controls (DMSO as vehicle). EC50 values were calculated from dose–response curve fitting via nonlinear regression using GraphPad Prism 10.2.3 (GraphPad Software, San Diego, CA). A therapeutic index (TI) between normal and tumor cell lines can be determined (EC50 non-neoplastic cell line BJ)/(EC50 cancer cell line). In vivo studies were analyzed using mixed-effects regression models to compare the changes in tumor volume over time by treatment group. Tumor volume reduction was compared using ANOVA with repeated measures, and all data was considered significant when P < 0.05.

Data set [2] can be described thus: Aqueous solubility by UV/vis absorbance. The class given is physicochemical. The conditions noted are these: kinetic from dmso stock. The source says:
First, topological polar surface area (tPSA), a widely used molecular descriptor that provides insight into compound absorption and membrane penetration, was theoretically calculated for these compounds along with the estimated c log P (partition coefficient) or log P to further assess their global therapeutic potential.[18],[19] Lipophilicity, a measurable and predictable physical property, can provide practical guidance in designing compounds with improved molecular properties.[20] The tPSA sums the contribution of the surface area of polar atoms, enabling us to determine whether the compounds are more likely to be cell membrane permeable. The aqueous solubility was measured by ultraviolet/visible (UV/vis) spectroscopy.[21] […] EP shares an improved cLogP, but still relatively high from a desirable drug candidate (2.5–3.5). […] Compound 4 has a higher c log P, while compounds 5–10 have lower c log P values. To determine LiPE (lipophilicity efficiency), the following formula was used: LiPE = pIC50 – log P, according to established methods.[22],[23] […] The obtained EC50 values for the newly generated EP derivatives were within a similar range for other derivatives previously described against TNBC models.[17]
Briefly, clear 96-well PS plates with lids (catalog no. 3903, Corning, Glendale, Arizona) were used for spectrophotometric determination of absorbance with a CLARIOstar Plus plate reader (BMG LabTech, Ortenberg, Germany) to determine at which concentration the compounds are precipitating out of solution. Decrease in transmittance of 2% or higher was considered significant. Compound solutions of 10 mM in DMSO were prepared followed by a serial dilution series, which were vortexed to ensure the solutions were homogeneous. The 96-well plate was then prepared with distilled H2O and allowed to equilibrate for 1.5 h. Then, the plate was placed in a CLARIOstar Plus plate reader or Cytation C10 (Biotek, Agilent) and set to detect absorbance at 220–700 nm. Each well was read individually. Three replicate assays were conducted for each experimental condition, and a minimum of three independent experiments were conducted.

≈ marks a conversion by molar mass, not a printed value. Where two headings read alike, the source gives them in different places.

In the case of `CC(C)[C@@H](C)/C=C/[C@@H](C)[C@H]1CC[C@@H]2[C@]1(C)CC[C@H]1[C@]23C=C[C@]2(C[C@@H](O)CC[C@]12C)OO3` [Compound 2, Ergosterol peroxide], in data set [1], the efflux ratio at 2 h, 10 µmol/L is about 1; the Papp A→B at 2 h, 10 µmol/L was found to be 34.2 ×10⁻⁶ cm/s; the Papp B→A at 2 h, 10 µmol/L came to 31.9 ×10⁻⁶ cm/s. The EC50 in the data set on MDA-MB-231 turned out to be 18 µM. Also, in data set [2] (distilled water, distilled H2O, UV/vis, read-out: solubility limit), the solubility at […] came out at 21.4 µg/mL (≈ 50 µM).
For `CC(C)[C@@H](C)/C=C/[C@@H](C)[C@H]1CC[C@@H]2[C@]1(C)CC[C@H]1[C@]23C=C[C@]2(CC(=O)CC[C@]12C)OO3` [Compound 3], in data set [1], the efflux ratio at 2 h, 10 µmol/L amounted to 0.49; the Papp A→B at 2 h, 10 µmol/L stood at 0.626 ×10⁻⁶ cm/s; the Papp B→A at 2 h, 10 µmol/L was 0.307 ×10⁻⁶ cm/s. Also, the concentration giving a half-maximal response (EC50) with MDA-MB-231 was determined as 7 µM. Also, the concentration in solution in data set [2] (water) (solubility at […]) was 10.7 µg/mL (≈ 25 µM).
